Test system: regulated mbIL15 TILs
Test: ACZ dose response of IL15 expression and signaling, phospho-flow cytometry
Type: cell-based, human
Conditions: 18 hours, 0.1-100 μM ACZ
Method: Pre-REP TILs were prepared similarly to the methods of Example 1-3 and 9, and unengineered and mbIL15 TIL generated accordingly as described in Examples 1-3 and 9. Engagement of the IL15 signaling pathway results in phosphorylation of signal transducers downstream, including the transcription factor protein STAT5 and ribosomal protein S6. […] Next, the regulated mbIL15 TILs were regulated for 18 hours in the presence of a range of concentrations of ACZ including 0.1, 1, 2.5, 5, 10, 25, 100 μM, as well as vehicle control. The regulated mbIL15 TILs were then collected for staining and FACS analysis.
Briefly, cells were stained using antibodies for CD3, CD4, CD8, IL15 and a Live/Dead marker. Then cells were fixed in 2% formaldehyde (BD Cytofix) and permeabilized using a methanol-based buffer (BD Phospho Perm III Buffer) before staining with antibodies specific for phosphorylated STAT5 (Biolegend) and S6 (Cell Signaling Technology). Cells were acquired on the BD Symphony and analyzed using FlowJo software.

CC(=O)Nc1nnc(S(N)(=O)=O)s1 [ACZ, acetazolamide]
staining intensity of pSTAT5 and pS6: increased with higher concentrations of ACZ | ACZ concentration at which mbIL15 expression plateaus (four donors): 10 to 25 µM
